Measured values from patent publication US20090291929A1, “STEROIDS HAVING A MIXED […] PRO[…]” (N.V. ORGANON, priority 2005, published 2009).
Read-outs that look alike come from different tables or passages of the source.

Tests used:
[1] = from literature; cited from earlier work
[2] = from literature (Seaman 1985); cited from earlier work
Oral activity = format: in vivo; conditions: found by applicant ("We have found")
[3] = Prevention of trabecular bone mineral density (BMD) loss; format: in vivo; conditions: found by applicant
Excerpt: Biological activity of compounds according to the invention can be observed in vivo in the rat serum LH suppression test and in the rat anti-steoporosis test measuring restoration of trabecular bone mineral density. Anabolic effect can be observed on musculus levator ani. In the monkey activity can be observed in the testosterone suppression test. In vivo liver safety can be evaluated in the rabbit upon repeated administration of a compound according to the invention.

[4] = Liver safety: BSP retention assay in male castrated rabbits; format: in vivo, New Zealand White rabbits; conditions: 10 mg/kg/day per oral for 7 days, BSP 15 mg/kg intravenous
Description: The primary aim of this test was the evaluation of liver function, by measuring the clearance of a single, intravenously injected, dose of bromosulfophthalein (BSP) after 7 days (once daily) per oral treatment of male castrated rabbits with a compound of the invention.
Briefly, this test is performed in mature male castrated New Zealand White rabbits. At least two weeks after castration animals are treated for seven days (once daily) with tablets, or arachis oil containing 5% (v/v) ethanol, resulting in a dose of 10 mg/kg/day of a test compound. Twenty-four hours after the last administration the rabbits were light sedated with 0.15 ml Hypnorm intramuscular, BSP was injected (15 mg/kg intravenous, dissolved in 5% (w/v) mannitol/H2O). Blood is collected at 5, 10, 15 and 20 minutes, BSP content in plasma is determined with a spectrophotometer. The t½ of BSP elimination from the blood is calculated from the obtained data.

[5] = target: T1, human androgen receptor (hAR) (Homo sapiens, UniProt P10275); test: Transactivative androgen agonistic activity in CHO cells transfected with hAR, MMTV and luciferase; format: cell-based; conditions: MMTV-luciferase, incubation 16 h, 37° C.
T1 construct: expressed in transfected cells; host or cells: Chinese hamster ovary cells (CHO)
T1 sequence (P10275 1-920): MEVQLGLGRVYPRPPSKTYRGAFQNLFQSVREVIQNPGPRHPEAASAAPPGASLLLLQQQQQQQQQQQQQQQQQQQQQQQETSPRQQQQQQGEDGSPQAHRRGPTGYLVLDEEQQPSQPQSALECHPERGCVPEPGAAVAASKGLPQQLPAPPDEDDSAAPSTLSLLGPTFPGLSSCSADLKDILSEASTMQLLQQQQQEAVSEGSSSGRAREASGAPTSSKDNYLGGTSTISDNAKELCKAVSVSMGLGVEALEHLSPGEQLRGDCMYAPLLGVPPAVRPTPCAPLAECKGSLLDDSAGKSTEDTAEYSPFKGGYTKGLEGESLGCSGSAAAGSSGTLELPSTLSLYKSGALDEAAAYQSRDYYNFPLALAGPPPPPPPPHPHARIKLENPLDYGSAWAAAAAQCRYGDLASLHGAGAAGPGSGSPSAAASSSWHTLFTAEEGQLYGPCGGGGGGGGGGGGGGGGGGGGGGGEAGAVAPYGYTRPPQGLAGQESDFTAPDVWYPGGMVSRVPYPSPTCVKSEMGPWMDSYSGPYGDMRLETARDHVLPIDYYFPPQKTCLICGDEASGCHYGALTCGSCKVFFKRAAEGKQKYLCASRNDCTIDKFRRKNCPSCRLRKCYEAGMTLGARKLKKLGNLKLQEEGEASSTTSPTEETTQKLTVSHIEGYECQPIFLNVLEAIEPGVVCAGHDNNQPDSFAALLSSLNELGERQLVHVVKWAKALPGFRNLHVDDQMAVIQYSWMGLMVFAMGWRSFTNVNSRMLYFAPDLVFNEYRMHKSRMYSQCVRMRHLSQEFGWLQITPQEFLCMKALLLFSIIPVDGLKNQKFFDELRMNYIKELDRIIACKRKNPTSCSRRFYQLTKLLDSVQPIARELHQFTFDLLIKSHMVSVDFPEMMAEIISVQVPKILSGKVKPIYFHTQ
Description: (§1) The transactivative androgen agonistic activity of the compounds of the invention was measured in Chinese hamster ovary cells (CHO) transfected with the human androgen receptor (hAR), in combination with a mouse mammary tumor virus (MMTV), and luciferase receptor gene (incubation time 16 h, temperature 37° C.) and compared with the activity of 5α-dihydrotestosterone [according to the procedure described by Schoonen, W. G. E. J. et al., Analyt. Biochem. 261, 222-224 (1998)].

[6] = target: T2, human progesterone receptor B (hPRB) (Homo sapiens, UniProt P06401); test: Transactivative progestagenic agonistic activity in CHO cells transfected with hPRB, MMTV and luciferase; format: cell-based; conditions: MMTV-luciferase, incubation 16 h, 37° C.
T2 construct: expressed in transfected cells; host or cells: Chinese hamster ovary cells (CHO)
T2 sequence (P06401 1-933): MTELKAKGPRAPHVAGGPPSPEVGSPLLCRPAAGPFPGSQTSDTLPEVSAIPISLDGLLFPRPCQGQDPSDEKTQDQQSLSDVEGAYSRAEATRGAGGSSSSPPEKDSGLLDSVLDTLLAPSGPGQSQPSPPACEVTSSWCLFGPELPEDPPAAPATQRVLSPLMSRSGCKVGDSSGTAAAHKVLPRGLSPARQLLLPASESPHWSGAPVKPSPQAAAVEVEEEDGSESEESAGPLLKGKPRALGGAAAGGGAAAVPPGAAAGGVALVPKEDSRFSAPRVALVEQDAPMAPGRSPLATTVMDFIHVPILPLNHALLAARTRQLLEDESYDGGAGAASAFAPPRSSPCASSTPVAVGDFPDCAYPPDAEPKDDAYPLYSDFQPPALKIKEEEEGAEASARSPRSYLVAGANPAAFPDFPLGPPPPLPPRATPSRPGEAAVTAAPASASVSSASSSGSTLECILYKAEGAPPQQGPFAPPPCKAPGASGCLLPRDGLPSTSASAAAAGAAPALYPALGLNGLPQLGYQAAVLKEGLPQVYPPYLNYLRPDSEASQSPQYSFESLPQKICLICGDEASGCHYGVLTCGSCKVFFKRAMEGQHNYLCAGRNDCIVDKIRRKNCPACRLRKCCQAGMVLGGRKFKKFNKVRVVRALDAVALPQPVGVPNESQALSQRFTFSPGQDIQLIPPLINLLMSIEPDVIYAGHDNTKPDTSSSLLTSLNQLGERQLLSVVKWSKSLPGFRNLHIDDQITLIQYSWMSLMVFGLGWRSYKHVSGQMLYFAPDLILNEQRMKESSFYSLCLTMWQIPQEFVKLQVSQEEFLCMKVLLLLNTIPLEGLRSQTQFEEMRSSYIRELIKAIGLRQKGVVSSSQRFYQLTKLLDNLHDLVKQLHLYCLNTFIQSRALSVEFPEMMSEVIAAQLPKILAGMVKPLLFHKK
Description: as §1, with “transactivative progestagenic” for “transactivative androgen”, “human progesterone” for “human androgen”, “receptor B (hPRB),” for “receptor (hAR),”, “of (16α)-16-ethyl-21-hydroxy-19-norpregn-4-ene-3,20-dione” for “of 5α-dihydrotestosterone”

Liver toxicity = conditions: stated without citation
[7] = vehicle Arachis oil + 5% ethanol

| SMILES | Androgen activity: Relative agonistic activity (%) versus 5α-dihydrotestosterone [5] [%] | Progestagen activity: Relative agonistic activity (%) versus (16α)-16-ethyl-21-hydroxy-19-norpregn-4-ene-3,20-dione [6] [%] | further results |
| --- | --- | --- | --- |
| C[C@@H]1CC2=CC(=O)CC[C@@H]2[C@H]2CC[C@@]3(C)[C@@H](CC[C@]3(C)O)[C@@H]21 [7α,17α-dimethylnandrolone] |  |  | Oral activity [1]: orally active; Liver toxicity [2]: severe liver toxicity |
| CC1CC2=CC(=O)CCC2C2CCC3(C)C(O)CCCC3C12 [7α-Methyl-19-nor-D-homotestosterone] |  |  | Oral activity (Oral activity): not an orally active compound |
| C[C@]1(O)CCC[C@H]2[C@@H]3CCC4=CC(=O)CC[C@@H]4[C@H]3CC[C@@]21C [17aα-Methyl-19-nor-D-homotestosterone] |  |  | Oral activity (Oral activity): low activity upon oral administration; Prevention of trabecular bone mineral density (BMD) loss [3]: unable to prevent trabecular bone mineral density (BMD) loss |
| C[C@]12CCC(=O)C=C1CC[C@@H]1[C@@H]2CC[C@@]2(C)[C@H]1CC[C@]2(C)O [17α-Methyltestosterone, reference compound] |  |  | T½ BSP [4, 7]: 5.6 min; T½ BSP ([4]; vehicle Tablet): 6.0 min |
| CCC12CCC3C4CCC(=O)C=C4CCC3C1CCCC2(C)O [(17aβ)-13-ethyl-17a-hydroxy-17a-methyl-D-homogon-4-en-3-one] |  |  | Oral activity (Oral activity): not orally active |
| CCC12CCC3C4CCC(=O)C=C4CCC3C1CCCC2O [(17aβ)-13-ethyl-17a-hydroxy-D-homogon-4-en-3-one] |  |  | Oral activity (Oral activity): not orally active |
| CCC1CC2=CC(=O)CCC2C2CCC3(C)C(=CCCC3O)C12 [Compound of Example 2, (7α,17aβ)-7-Ethyl-17a-hydroxy-D-homoestra-4,14-dien-3-one] | 30.5 | 0.47 |  |
| CC1CC2=CC(=O)CCC2C2CCC3(C)C(=CCC(C)C3O)C12 [Compound of Example 3, (7α,17α,17aβ)-17a-Hydroxy-7,17-dimethyl-D-homoestra-4,14-dien-3-one] | 10.2 | 47.4 |  |
| CC1CC2=CC(=O)CCC2C2CCC3(C)C(=CCCC3(C)O)C12 [Compound of Example 4, (7α,17aβ)-17a-Hydroxy-7,17a-dimethyl-D-homoestra-4,14-dien-3-one] | 106.9 | 133.7 | T½ BSP [4, 7]: 4.9 min; T½ BSP ([4]; vehicle Tablet): 5.5 min |
| CC1CC2=CC(O)CCC2C2CCC3(C)C(=CCCC3(C)O)C12 [Compound of Example 5, (3β,7α,17aβ)-7,17a-Dimethyl-D-homoestra-4,14-dien-3,17a-diol] | 36.2 | 6.4 |  |
| CCC1(O)CCC=C2C3C(C)CC4=CC(=O)CCC4C3CCC21C [Compound of Example 6, (7α,17aα)-17a-Hydroxy-7-methyl-D-homo-19-norpregna-4,14-dien-3-one] | 13.2 | 91.2 |  |
| CC1(O)CCC=C2C3CCC4=CC(=O)CCC4C3CCC21C [Compound of Example 8, (17aβ)-17a-Hydroxy-17a-methyl-D-homoestra-4,14-dien-3-one] | 157.9 | 228.4 |  |
| C#CC1(O)CCC=C2C3CCC4=CC(=O)CCC4C3CCC21C [Compound of Example 9, (17aα)-17a-Hydroxy-D-homo-19-norpregna-4,14-dien-20-yn-3-one] | 12.3 | 16.0 |  |
| C[C@@H]1CC2=CC(=O)CC[C@@H]2[C@H]2CC[C@@]3(C)C(=CC[C@]3(C)O)[C@@H]21 [Reference compound, (7α,17β)-17-Hydroxy-7,17-dimethylestra-4,14-dien-3-one] |  |  | Liver toxicity (Liver toxicity): severe liver toxicity |
